The values that follow come from US20200157048A1, “(2E,4E)-5-PHENYL-PENTA-2,4-DIEN-1-ONE DERIVATIVE” (BIOWAY., INC, priority 2018, published 2020).

For this experiment, the target named is T1, SIRT1 (Homo sapiens, UniProt Q96EB6).
T1 construct: purchased Cayman (Ann Arbor, Mich., USA)
T1 sequence (Q96EB6 1-747): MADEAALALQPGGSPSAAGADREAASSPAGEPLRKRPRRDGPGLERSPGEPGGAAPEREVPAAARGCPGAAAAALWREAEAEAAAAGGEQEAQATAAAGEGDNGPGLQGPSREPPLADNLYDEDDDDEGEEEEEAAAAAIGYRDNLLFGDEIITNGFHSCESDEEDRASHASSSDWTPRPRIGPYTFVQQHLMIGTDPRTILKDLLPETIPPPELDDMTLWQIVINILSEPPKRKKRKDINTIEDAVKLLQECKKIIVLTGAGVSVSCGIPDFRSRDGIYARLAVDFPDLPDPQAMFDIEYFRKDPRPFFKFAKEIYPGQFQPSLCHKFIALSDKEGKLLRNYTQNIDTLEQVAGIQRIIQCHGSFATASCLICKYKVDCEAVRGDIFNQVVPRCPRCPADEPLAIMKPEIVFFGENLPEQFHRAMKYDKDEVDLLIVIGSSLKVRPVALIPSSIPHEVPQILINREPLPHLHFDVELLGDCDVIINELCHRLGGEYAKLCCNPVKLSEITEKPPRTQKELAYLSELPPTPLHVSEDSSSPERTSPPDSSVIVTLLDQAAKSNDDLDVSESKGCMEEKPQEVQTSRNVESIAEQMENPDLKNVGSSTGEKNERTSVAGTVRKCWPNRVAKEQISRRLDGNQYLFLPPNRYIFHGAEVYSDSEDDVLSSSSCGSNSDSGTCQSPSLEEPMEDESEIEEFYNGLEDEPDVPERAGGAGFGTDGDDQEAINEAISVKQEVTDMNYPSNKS
As to the kind of experiment: SIRT1 direct fluorescent assay. In kind it is biochemical. To be noted: 20 μM. As for the experimental part: All materials were provided from a Sirt1 direct fluorescent screening assay kit (Cayman, Ann Arbor, Mich., USA).
SIRT1, p53 conjugated aminomethyl coumarin (AMC) protein, and 3 mM NAD^+ were added to a diluted analysis buffer (50 mM Tris-HCl, pH 8.0, 137 mM NaCl, 2.7 mM KCl, and 1 mM MgCl2).
25 μL of the analysis buffer, 5 μL of diluted SIRT1, and 5 μL of a solvent were added to each of three 100% initial activity wells of a 96-well plate.
30 μL of the analysis buffer and 5 μL of a solvent were added to each of three background wells of the 96-well plate.
25 μL of the analysis buffer, 5 μL of diluted SIRT1, and 5 μL of a diluted test compound were added to each of three sample wells of the 96-well plate. The final DMSO concentration was less than 2%.
15 μL of a 3 mM NAD^+-containing substrate solution was added to all wells to begin the reaction. The 96-well plate was covered with a plate cover, and then incubated in a shaker at room temperature (25 to 30° C.) for 45 minutes.
A stop/developing solution was prepared. To prepare the final 5 mL solution, 200 μL of nicotinamide (NAM, Sigma-Aldrich) was added to a color developing powder weighing 30 mg, 4.8 mL of a diluted analysis buffer was added thereto, and the resulting mixture was stirred until the powder became a solution.
The plate cover was removed, and 50 μL of the stop/developing solution was added to each well.
The 96-well plate was covered with a plate cover, and incubated at room temperature (25 to 30° C.) for 30 minutes.
The plate cover was removed, and the plate was read using Cytation 5 at an excitation wavelength of 360 nm and an emission wavelength of 450 nm.
The mean fluorescence of each sample was measured.
The fluorescence of the background wells was subtracted from the fluorescence of the 100% initial activity wells and sample wells.
To determine the percent of each sample, each sample value was subtracted from the 100% initial activity value, and the resulting value was divided by the 100% initial activity value and then multiplied by 100 and added to 100, which was expressed as a percentage.

In the case of `CSc1ccc(/C=C/C=C/C(=O)N2CCCCC2)cc1` [YU2014, (2E,4E)-5-(4-(methylthio)phenyl)-1-(piperidine-1-yl)penta-2,4-dien-1-one], the “increase of SIRT1 activity (FIG. 18)” value is “about 20%”.
